System: Ldlr−/− mice
Test: Atherosclerotic lesion quantification in HCD-fed Ldlr−/− mice, Glp1r agonist treatment
Assay type: in vivo
Details: 8 weeks on HCD, 100 μg per kg per day via osmotic minipumps, vs PBS
Experimental: Glp1r agonist treatment. Ldlr−/− mice were treated with the Glp1r agonist exendin-4 (Abcam) at a dose of 100 μg per kg per day via osmotic minipumps (Alzet). After 8 weeks on a HCD, mice were euthanized for atherosclerotic lesion quantification.
Adipose tissue. iWAT and pWAT were excised, fixed in 10% formalin solution and paraffin-embedded. Haematoxylin and eosin staining was performed to assess overall tissue morphology. The adipocyte size distribution was determined with the NIH ImageJ program. Aortas. Aortic roots were dissected, embedded in Tissue-Tek OCT compound (Sakura Finetek) and frozen in 2-methylbutane (Fisher Scientific) cooled with dry ice. For comparisons of lesion sizes between the groups, sections with the maximum lesion area were used. To measure lesion volume, sections were collected at the first appearance of the aortic valves until lesions were no longer visible. Oil red O staining (Sigma-Aldrich) was performed to visualize lipid content and the lesion size was measured. To quantify lesion macrophage and smooth muscle cell content, immunohistochemistry was performed with anti-CD68 (BioLegend) and anti-Myh11 (Millipore) antibodies. […] To quantify collagen content, Masson trichrome staining (Sigma-Aldrich) was performed.

exendin-4
atherosclerosis (plaque size, oil-red O-stained aortas): attenuated atherosclerosis

Source: patent US20220010019A1, “Targeting intraepithelial lymphocytes for treatment of metabolic syndrome” (The General Hospital Corporation, priority 2018, published 2022)
